Results reported in US12121524B2, “DNA-PK inhibitors” (VERTEX PHARMACEUTICALS INCORPORATED, priority 2018, dated 2024).

Biological target: DNA-PK (Homo sapiens, UniProt P78527)
Test: DNA-PK inhibition assay (standard radiometric 33P-ATP kinase assay)
Format: biochemical
Settings: 100 μM ATP, approx. 6 nM DNA-PK
Method: Compounds were screened for their ability to inhibit DNA-PK kinase using a standard radiometric assay. Briefly, in this kinase assay the transfer of the terminal ^33P-phosphate in ^33P-ATP to a peptide substrate is interrogated. The assay was carried out in 384-well plates to a final volume of 50 μL per well containing approximately 6 nM DNA-PK, 50 mM HEPES (pH 7.5), 10 mM MgCl2, 25 mM NaCl, 0.01% BSA, 1 mM DTT, 10 μg/mL sheared double-stranded DNA (obtained from Sigma), 0.8 mg/mL DNA-PK peptide (Glu-Pro-Pro-Leu-Ser-Gln-Glu-Ala-Phe-Ala-Asp-Leu-Trp-Lys-Lys-Lys, obtained from American Peptide), and 100 μM ATP.
Accordingly, compounds of the invention were dissolved in DMSO to make 10 mM initial stock solutions. Serial dilutions in DMSO were then made to obtain the final solutions for the assay. A 0.75 μL aliquot of DMSO or inhibitor in DMSO was added to each well, followed by the addition of ATP substrate solution containing ^33P-ATP (obtained from Perkin Elmer). The reaction was started by the addition of DNA-PK, peptide and ds-DNA. After 45 min, the reaction was quenched with 25 μL of 5% phosphoric acid. The reaction mixture was transferred to MultiScreen HTS 384-well PH plates (obtained from Millipore), allowed to bind for one hour, and washed three times with 1% phosphoric acid. Following the addition of 50 μL of Ultima Gold™ high efficiency scintillant (obtained from Perkin Elmer), the samples were counted in a Packard TopCount NXT Microplate Scintillation and Luminescence Counter (Packard BioScience). The Ki values were calculated using Microsoft Excel Solver macros to fit the data to the kinetic model for competitive tight-binding inhibition.

| SMILES | Ki [nM] |
| --- | --- |
| CC(C)Oc1cnc(N[C@H]2CC[C@@H](Oc3cc(N4CCOCC4)cc4nccnc34)CC2)nc1 [Compound 247] | < 100 |
| c1ccc(N[C@H]2CC[C@@H](Oc3cc(N4CCOCC4)cc4nccnc34)CC2)nc1 [Compound 254] | < 100 |
| Cc1ccc(N[C@H]2CC[C@@H](Oc3cc(N4CCOCC4)cc4nccnc34)CC2)nc1 [Compound 256] | < 100 |
| COc1ccc(N[C@H]2CC[C@@H](Oc3cc(N4CCOCC4)cc4nccnc34)CC2)nn1 [Compound 260] | < 100 |
| COCCNc1cc(N[C@H]2CC[C@@H](Oc3cc(N4CCOCC4)cc4nccnc34)CC2)ncn1 [Compound 263] | < 100 |
| CC(C)(CO)Nc1ccnc(N[C@H]2CC[C@@H](Oc3cc(N4CCOCC4)cc4nccnc34)CC2)n1 [Compound 264] | < 100 |
| Cc1cc(N[C@H]2CC[C@@H](Oc3cc(N4CCOCC4)cc4nccnc34)CC2)ncn1 [Compound 265] | < 100 |
| c1cc(N[C@H]2CC[C@@H](Oc3cc(N4CCOCC4)cc4nccnc34)CC2)nc(C2CC2)n1 [Compound 267] | < 100 |
| COc1nccc(N[C@H]2CC[C@@H](Oc3cc(N4CCOCC4)cc4nccnc34)CC2)n1 [Compound 268] | < 100 |
| CN(C)c1nc(N[C@H]2CC[C@@H](Oc3cc(N4CCOCC4)cc4nccnc34)CC2)ncc1F [Compound 269] | < 100 |
| c1cncc(N[C@H]2CC[C@@H](Oc3cc(N4CCOCC4)cc4nccnc34)CC2)c1 [Compound 272] | < 100 |
| c1cc(N[C@H]2CC[C@@H](Oc3cc(N4CCOCC4)cc4nccnc34)CC2)ccn1 [Compound 273] | < 100 |
| Cc1nc(N[C@H]2CC[C@@H](Oc3cc(N4CCOCC4)cc4nccnc34)CC2)cc(N2CCN(C)CC2)n1 [Compound 275] | < 100 |
| COc1cc(C)nc(N[C@H]2CC[C@@H](Oc3cc(N4CCOCC4)cc4nccnc34)CC2)n1 [Compound 276] | < 100 |
| Fc1c(Cl)ncnc1N[C@H]1CC[C@@H](Oc2cc(N3CCOCC3)cc3nccnc23)CC1 [Compound 277] | < 100 |
| C[C@H](CO)Nc1ncnc(N[C@H]2CC[C@@H](Oc3cc(N4CCOCC4)cc4nccnc34)CC2)c1F [Compound 380] | < 100 |
| COC(=O)c1cc(N[C@H]2CC[C@@H](Oc3cc(N4CCOCC4)cc4nccnc34)CC2)ncc1OC(C)(C)C [Compound 407] | < 100 |
| Cc1ccc(N[C@H]2CC[C@@H](Oc3cc(N4CCOCC4)cc4nccnc34)CC2)nn1 [Compound 450] | < 100 |
| COC(=O)c1cc(C)nc(N[C@H]2CC[C@@H](Oc3cc(N4CCOCC4)cc4nccnc34)CC2)n1 [Compound 565] | < 100 |
| Cc1cnc(N[C@H]2CC[C@@H](Oc3cc(N4CCOCC4)cc4nccnc34)CC2)nc1N1CCCCC1 [Compound 567] | < 100 |
| COc1nc(C)nc(N[C@H]2CC[C@@H](Oc3cc(N4CCOCC4)cc4nccnc34)CC2)n1 [Compound 604] | < 100 |
| Clc1nc(N[C@H]2CC[C@@H](Oc3cc(N4CCOCC4)cc4nccnc34)CC2)nc(C2CC2)n1 [Compound 605] | < 100 |
| CCOc1ncc(F)c(N[C@H]2CC[C@@H](Oc3cc(N4CCOCC4)cc4nccnc34)CC2)n1 [Compound 607] | < 100 |
| CCOc1cc(N[C@H]2CC[C@@H](Oc3cc(N4CCOCC4)cc4nccnc34)CC2)nc(C)n1 [Compound 644] | < 100 |

More lines, now with the values ahead:

| Ki [nM] | SMILES |
| --- | --- |
| < 100 | CN1CCN(c2ccc(C(=O)N[C@H]3CC[C@@H](Oc4cc(N5CCOCC5)cc5nccnc45)CC3)nc2)CC1 [Compound 198] |
| < 100 | CN1CCN(c2ncc(C(=O)N[C@H]3CC[C@@H](Oc4cc(N5CCOCC5)cc5nccnc45)CC3)cn2)CC1 [Compound 199] |
| < 100 | CN1CCN(c2ccc(C(=O)N[C@H]3CC[C@@H](Oc4cc(N5CCOCC5)cc5nccnc45)CC3)cc2F)CC1 [Compound 200] |
| < 100 | COC(=O)c1cccnc1N[C@H]1CC[C@@H](Oc2cc(N3CCOCC3)cc3nccnc23)CC1 [Compound 202] |
| < 100 | N#Cc1nccc(N[C@H]2CC[C@@H](Oc3cc(N4CCOCC4)cc4nccnc34)CC2)n1 [Compound 203] |
| < 100 | CNc1cc(N[C@H]2CC[C@@H](Oc3cc(N4CCOCC4)cc4nccnc34)CC2)ncn1 [Compound 205] |
| < 100 | COc1ccc(N[C@H]2CC[C@@H](Oc3cc(N4CCOCC4)cc4nccnc34)CC2)nc1 [Compound 206] |
| < 100 | N#Cc1ccnc(N[C@H]2CC[C@@H](Oc3cc(N4CCOCC4)cc4nccnc34)CC2)n1 [Compound 207] |
| < 100 | CCc1cnc(N[C@H]2CC[C@@H](Oc3cc(N4CCOCC4)cc4nccnc34)CC2)nc1 [Compound 208] |
| < 100 | CC(C)c1cnc(N[C@H]2CC[C@@H](Oc3cc(N4CCOCC4)cc4nccnc34)CC2)nc1 [Compound 209] |
| < 100 | O=C(O)c1ccnc(N[C@H]2CC[C@@H](Oc3cc(N4CCOCC4)cc4nccnc34)CC2)c1 [Compound 210] |
| < 100 | CCOc1cc(N[C@H]2CC[C@@H](Oc3cc(N4CCOCC4)cc4nccnc34)CC2)ncn1 [Compound 215] |
| < 100 | COc1nc(Cl)cc(N[C@H]2CC[C@@H](Oc3cc(N4CCOCC4)cc4nccnc34)CC2)n1 [Compound 219] |
| < 100 | COCc1cc(N[C@H]2CC[C@@H](Oc3cc(N4CCOCC4)cc4nccnc34)CC2)ncn1 [Compound 225] |
| < 100 | CCOc1cnc(N[C@H]2CC[C@@H](Oc3cc(N4CCOCC4)cc4nccnc34)CC2)nc1 [Compound 233] |
| < 100 | N#Cc1cc(N[C@H]2CC[C@@H](Oc3cc(N4CCOCC4)cc4nccnc34)CC2)ncn1 [Compound 234] |
| < 100 | O[C@H](c1cnc(N[C@H]2CC[C@@H](Oc3cc(N4CCOCC4)cc4nccnc34)CC2)nc1)C(F)(F)F [Compound 235] |
| < 100 | O[C@@H](c1cnc(N[C@H]2CC[C@@H](Oc3cc(N4CCOCC4)cc4nccnc34)CC2)nc1)C(F)(F)F [Compound 236] |
| < 100 | Cc1nc(N[C@H]2CC[C@@H](Oc3cc(N4CCOCC4)cc4nccnc34)CC2)ccc1C#N [Compound 241] |
| < 100 | Cc1cc(C#N)cnc1N[C@H]1CC[C@@H](Oc2cc(N3CCOCC3)cc3nccnc23)CC1 [Compound 242] |
| < 100 | CC(C)(O)c1cnc(N[C@H]2CC[C@@H](Oc3cc(N4CCOCC4)cc4nccnc34)CC2)nc1 [Compound 243] |
| < 100 | COc1cc(N[C@H]2CC[C@@H](Oc3cc(N4CCOCC4)cc4nccnc34)CC2)nc(OC)n1 [Compound 245] |
| < 100 | Cc1ccnc(N[C@H]2CC[C@@H](Oc3cc(N4CCOCC4)cc4nccnc34)CC2)n1 [Compound 246] |
